Measured values as given in patent US20040029953A1, “Use of neuropeptide-y antagonists in treatment of alcoholism” (priority 2000, published 2004).
“Also recorded” adds a separate entry of the source.

Experiments:
[1] = test system: rats; settings: cited from earlier work
[2] = test system: Long-Evans rats; experiment: Ethanol (10% v/v) vs. water self-administration after infusion in the PVN, sucrose-faded rats with long-term ethanol history; format: in vivo, rat
Description: The effectiveness of known NPY receptor antagonists and NPY Y1-selective or Y5selective receptor antagonists in reducing craving for alcohol and reducing self-administration of alcohol can be tested in experimental animal models. Briefly, Long-Evans rats are conditioned to the laboratory environment and trained to self-administer concurrent ethanol (10% v/v) vs. water using a sucrose-fading procedure (H. H. Samson, Alcohol Clin. Exp. Res., 1986, 10:436442) as described by Hodge et al. (Alcohol, 1993, 10:191-196). Stereotaxic surgery is performed to implant injector guide cannulae aimed at the PVN. Microinjections of test compounds are given, with and without concomitant injection of NPY, into the PVN of the conditioned rats, which are then immediately given the opportunity to self-administer either water or ethanol (10% v/v). The volume of ethanol and water consumed are measured. Ethanol intake is converted from milliliters consumed to gram/kilogram body weight. Relative ethanol intake (preference) is calculated as […] of ethanol consumed divided by total fluid intake (ethanol+water […]). Drug dose effects are analyzed by one-way repeated measures analysis of variance (ANOVA). Post-hoc comparisons between drug doses and vehicle control are conducted using a paired t-test or Dunnett's t-test where appropriate (SigmaStat, Jandel, San Rafael, Calif.).
Animals. Thirty-six male Long-Evans rats (Harlan, Indianapolis, Ind.) were housed individually in Plexiglas cages. Access to water was restricted during the first day of behavioral training, but was continuously available for the remainder of the experiment. Food was always available in the home cage. In experimental chambers, ethanol (10% v/v) and water were available concurrently during daily (M-F) sessions. The animal colony room was maintained on a 12L:12D cycle with the lights on at 06:30. Experimental sessions were run during the light portion of the cycle. All experimental procedures were conducted under institutional and NIH guidelines.
Apparatus. Experimental sessions were conducted in Plexiglas chambers (27×37×21 cm) located in sound-attenuating cubicles (MED Associates, model ENV 016M, Lafayette, Ind.). Chambers were equipped with exhaust fans that masked external noise. The right wall of each chamber contained two 50-ml drinking bottles. Drug solutions were administered bilaterally through stainless steel injectors (Plastics One, Roanoke, Va.), which were connected via plastic tubing to two 1.0 μl syringes (Hamilton, Reno, Nev.). Syringes were mounted on a micro-infusion pump (Harvard Apparatus, Model 22, Natick, Mass.) set to deliver 0.5 μl/min/syringes.
Self-administration procedures. After 2 weeks of adaptation to laboratory housing conditions, fluid access was restricted to 1-h per day (for 2 days only) and two groups of rats (n=12 per group) were trained to drink from the bottles in the experimental chambers by overnight access to sucrose (10% w/v) vs. water during one overnight session. Daily 1 hour sessions were then conducted with sucrose (10% w/v) vs. water available concurrently. The location (i.e., left or right side of the chamber) of the sucrose and water solutions was alternated daily. When sucrose and water intake patterns stabilized, the rats were trained to self-administer concurrent ethanol (10% v/v) vs. water using a sucrose-fading procedure (H. H. Samson, Alcohol Clin. Exp. Res., 1986, 10:436-442) as previously described (e.g., Hodge et al., 1993). Briefly, ethanol was gradually added to the sucrose solution and then sucrose was faded out of the solution until rats were self-administering 10% ethanol vs. water. During the 2-month sucrose-fading procedure, the location of the ethanol/sucrose solution and water were alternated daily.

[3] = test system: rats trained to self-administer ethanol vs. water; experiment: Microinjection in the central nucleus of the amygdala (CeA), ethanol vs. water self-administration; format: in vivo, rat
Protocol: FIG. 4 depicts a dose response curve showing the effects the NPY-Y1 antagonist BIBP 3226 in the central nucleus of the Amygdala.
To further elucidate the role of NPY receptors in alcohol-seeking behavior, the NPY-Y1 […] BIBP 3226 was injected in the central nucleus of the amygdala (CeA) of rats trained to self-administer ethanol vs. water as described (Kelley et al., 2001 Peptides 22: 515-522). The CeA was chosen as an additional test site because, in addition to the hypothalamus, this brain region contains significant numbers of NPY receptors.

[4] = target: T1, Y1 receptor (Homo sapiens, UniProt P25929); settings: cited from earlier work
T1 sequence (P25929 1-384): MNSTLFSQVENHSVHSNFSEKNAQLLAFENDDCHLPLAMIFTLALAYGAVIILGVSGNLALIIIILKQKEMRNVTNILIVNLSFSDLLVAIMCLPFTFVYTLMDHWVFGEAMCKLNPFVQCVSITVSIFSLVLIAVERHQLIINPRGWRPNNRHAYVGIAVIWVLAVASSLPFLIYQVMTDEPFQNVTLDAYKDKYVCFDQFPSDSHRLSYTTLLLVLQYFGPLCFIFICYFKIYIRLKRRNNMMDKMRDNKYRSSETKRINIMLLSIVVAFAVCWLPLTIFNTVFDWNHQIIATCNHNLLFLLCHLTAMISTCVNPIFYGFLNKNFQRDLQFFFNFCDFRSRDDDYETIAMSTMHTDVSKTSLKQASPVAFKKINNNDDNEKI

[5] = BIBP 3226 (10.6 μm) alone in the PVN

Compound: N=C(N)NCCC[C@@H](NC(=O)C(c1ccccc1)c1ccccc1)C(=O)NCc1ccc(CNC(N)=O)cc1.O=C(O)C(F)(F)F [BIBO 3304, (R)-N-[[4-(aminocarbonylaminomethyl)-phenyl]methyl]-N^2-(diphenylacetyl)arginine amide trifluoroacetate]
- food intake induced by application of NPY or by fasting ([1]; rats): significantly inhibits food intake

Compound: N=C(N)NCCC[C@@H](NC(=O)C(c1ccccc1)c1ccccc1)C(=O)NCc1ccc(O)cc1 [BIBP 3226, (R)-N^2-(diphenylacetyl)-N-[(4-hydroxyphenyl)methyl]-D-arginine amide]
- ethanol intake [2, 5]: no significant effect
- ethanol preference [2, 5]: no significant effect
- water intake [2, 5]: no significant effect
- NPY-induced increase in ethanol intake ([2]; BIBP 3226 co-administered with NPY (10 fmol) in the PVN): completely blocked
- dose of self-administered ethanol ([3]; BIBP 3226 in the CeA, highest dose, 1-hour sessions, vs vehicle, p<0.05): reduced ethanol self-administration after infusion of the highest dose; also recorded: significantly reduced alcohol self-administration; also recorded: significantly reduced the dose of alcohol that was self-administered
- water intake ([3]; BIBP 3226 injected in the CeA): no effect on water intake

Compound: NPY 2-36: an N-terminal truncated NPY fragment
- affinity for the Y1 receptor subtype [4]: low potency

Compound: [Pro^34]-NPY: Y1 agonist that stimulates feeding
- food intake relative to that seen following the injection of NPY ([1]; rat, in vivo): approximately 50%
